# What was measured:
# MCF7 cells [1] = test: Mammosphere formation assay; type: cell-based, human; conditions: 5 μM, FIG. 5
# Description: The present approach involves methods of testing compounds, and in particular mitoriboscins, for anti-cancer properties. As discussed above, vHTS and computational chemistry may be used to identify candidate mitochondrial inhibitors. Those candidates may be tested for specific anti-cancer properties. For examples, the inventors compared seven candidate compounds in parallel for their ability to inhibit mammosphere formation in MCF7 cells. […] For example, 23/G4 (Group 1) reduced mammosphere formation by 50% at this concentration. Similarly, 24/F9 (Group 2) and 24/D4 (Group 3), both reduced mammosphere formation by ˜90%.
# MCF7 cell monolayers = test: Cell viability of MCF7 monolayers (SRB); type: cell-based, human; conditions: FIG. 6
# Method: (§1) The present approach includes methods of confirming cell viability. Persons of skill in the art may select one or more methods for confirming cell viability suitable for the particular embodiment. The inventors initially used the Sulphorhodamine (SRB) assay, which is based on the measurement of cellular protein content. After treatment for 72 hours in 96-well plates, cells were fixed with 10% trichloroacetic acid (TCA) for 1 hour in the cold room, and were dried overnight at room temperature. Then, cells were incubated with SRB for 15 min, washed twice with 1% acetic acid, and air dried for at least 1 hour. Finally, the protein-bound dye was dissolved in a 10 mM Tris, pH 8.8 solution and read using the plate reader at 540-nm. Using the SRB assay, the inventors selected only the compounds depleting ATP levels without prominent cytotoxicity for further analysis. Prominent cytotoxicity was defined as fewer than 30% of cells still on the plate. Of course, embodiments employing other cell viability confirmation methodology may select compounds for further analysis based on other considerations as may be known in the art.
# (§2) Based on this analysis, the inventors assessed the functional effects of the three candidates on overall viability in MCF7 cell monolayers and normal human fibroblasts (hTERT-BJ1 cells) (FIG. 6). […]
# hTERT-BJ1 cells = test: Cell viability of normal fibroblasts; type: cell-based; conditions: 5 μM, normal human fibroblasts, FIG. 6
# Method: as §1, §2
# MCF7 cells [2] = test: Seahorse XF96 metabolic flux analysis (OCR/ECAR); type: cell-based, human
# Description: The present approach further involves methods of functional validation at step S105, during which a compound's function as a mitochondrial inhibitor may be confirmed. A number of methods may be used for functional validation, including, for example, metabolic flux analysis, mammosphere assays, viability assays, and antibiotic (anti-bacterial and/or anti-fungal) activity. For example, the inventors determined extracellular acidification rates (ECAR) and real-time oxygen consumption rates (OCR) for MCF7 cells using the Seahorse Extracellular Flux (XF96) analyzer (Seahorse Bioscience, MA, USA). MCF7 cells were maintained in DMEM supplemented with 10% FBS (fetal bovine serum), 2 mM GlutaMAX, and 1% Pen-Strep. 5,000 cells per well were seeded into XF96-well cell culture plates, and incubated overnight at 37° C. in a 5% CO2 humidified atmosphere. After 24 hours, cells were treated with selected compounds showing ATP-depletion without prominent cytotoxicity at various concentrations (or vehicle alone). After 72 hours of treatment, cells were washed in pre-warmed XF assay media (for OCR measurement, XF assay media was supplemented with 10 mM glucose, 1 mM Pyruvate, 2 mM L-glutamine and adjusted at pH 7.4). Cells were maintained in 175 μL/well of XF assay media at 37° C. in a non-CO2 incubator for 1 hour. During incubation, 25 μL of 80 mM glucose, 9 μM oligomycin, 1M 2-deoxyglucose (for ECAR measurement) and 25 μL of 10 μM oligomycin, 9 μM FCCP, 10 μM rotenone, 10 μM antimycin A (for OCR measurement) in XF assay media was loaded into the injection ports of the XFe-96 sensor cartridge. During the experiment, the instrument injected these inhibitors into the wells at a given time point, while ECAR/OCR was measured continuously. ECAR and OCR measurements were normalized by protein content (using the Sulphorhodamine B assay). Data sets were analyzed by XFe-96 software, using one-way ANOVA and Student's t-test calculations. All experiments were performed in triplicate, and results validated the mitochondrial inhibition effects of mitoriboscin compounds described herein. It should be appreciated that numerous methods are known for functional validation, and that persons of skill in the art may select one or more depending on the validation needs (e.g., other assays that measure or approximate mitochondrial function). The present approach involves methods of function validation of mitoriboscin compounds. For example, the inventors assessed functional validation of three candidates using the Seahorse Analyzer, which quantitatively measures oxygen consumption rate (OCR) and extracellular acidification rate (ECAR). OCR is a surrogate marker for OXPHOS and ECAR is a surrogate marker for glycolysis and L-lactate production.
# E. coli ATCC 25922 = test: MIC by broth dilution method; type: cell-based; conditions: E. coli ATCC 25922, 24 hours at 37° C.
# Method: (§3) The minimal inhibitory concentration (MIC) of the antibacterial compounds may be determined using the broth dilution method, according to CLSI guidelines. Test compound solutions (or antibiotic solutions used as positive controls) were diluted, serially, with MHB medium. Then, the suspensions of the microorganisms, prepared from overnight cultures of bacteria in the MHB medium, at a concentration of 10^6 CFU/ml, were added to each dilution in a 1:1 ratio. McFarland standards were used as a reference to adjust the turbidity of microorganism suspensions. Growth (or lack thereof) of the microorganisms was determined after incubation for 24 hours at 37° C. by turbidimetry (wavelength of 600 nm). […] The susceptibility test by measurement of MIC was performed in triplicate and repeated three times independently.
# K. pneumoniae ATCC 13883 = test: MIC by broth dilution method; type: cell-based
# Method: as §3
# [3] = test system: Staph. aureus ATCC 25923 (MSSA); test: MIC by broth dilution method; type: cell-based
# Method: as §3
# [4] = test system: Strept. pyogenes ATCC 19615; test: MIC by broth dilution method; type: cell-based
# Method: as §3
# P. auriginosa ATCC 27853 = test: MIC by broth dilution method; type: cell-based, P. aeruginosa
# Method: as §3
# C. albicans = test: MIC by broth dilution method; type: cell-based; conditions: C. albicans ATCC 13883
# Method: as §3, with “nm). MIC 50 and MIC 99 are defined as the minimum inhibitory concentration of the compound required for 50% and 99% inhibition of bacterial growth.” for “nm).”, “independently. Statistical significance was determined using the Student's t-test and values of less than 0.05 were considered significant.” for “independently.”
# (§4) In order to determine the minimal inhibitory concentration (MIC) for 24/F9, 24/D4 and 23/G4, the broth dilution method may be performed.
# MRSA ATCC 43300 = test: MIC by broth dilution method; type: cell-based, Methicillin-resistant Staphylococcus aureus
# Method: as §3, with “nm). MIC 50 and MIC 99 are defined as the minimum inhibitory concentration of the compound required for 50% and 99% inhibition of bacterial growth.” for “nm).”, “independently. Statistical significance was determined using the Student's t-test and values of less than 0.05 were considered significant.” for “independently.”
# as §4
# [5] = test system: twelve different cell lines, representing eight different cancer types; conditions: cited from earlier work
# [6] = Staph. aureus ATCC 25923 (Table 3)
structure (smiles),measurement,setting,value
OC1C(NCc2ccccc2)CCCC1Oc1ccccc1Oc1ccc(Cl)cc1 (stereo not shown) [23/G4],reduction of mammosphere formation,MCF7 cells [1],50%
same,effect on overall cell viability of MCF7 monolayers,MCF7 cell monolayers; 500 nM and 2.5 μM,little or no effect
same,reduction of viability of MCF7 cells,MCF7 cell monolayers; 5 μM,70%
same,effect on viability of hTERT-BJ1 cells,hTERT-BJ1 cells,no effect
same,reduction of ATP levels,MCF7 cells [2]; 500 nM,> 50%
same,reduction of ATP levels,"MCF7 cells [2]; 2.5 μM, FIG. 7",~75%
same,reduction in ATP levels,"MCF7 cells [2]; 5 μM, FIG. 10",greater than 75%
same,increase in glycolysis rates,MCF7 cells [2]; ECAR,more than 1.5 fold
same,inhibition of mitochondrial oxygen-consumption,"MCF7 cells [2]; FIGS. 7, 8 and 9",dose-dependently inhibited
same,rank order potency to reduce maximal respiration and ATP production,"MCF7 cells [2]; top 10 hits, FIG. 10",top 6
same,MIC 50%,E. coli ATCC 25922,>16 µg/mL
same,MIC 99%,E. coli ATCC 25922,>32 µg/mL
same,MIC 50%,K. pneumoniae ATCC 13883,16 µg/mL
same,MIC 99%,K. pneumoniae ATCC 13883,32 µg/mL
same,MIC 50%,[3]; MSSA ATCC 25923 (Table 4),4 µg/mL
same,MIC 99%,[3]; MSSA ATCC 25923 (Table 4),8 µg/mL
same,MIC 50%,[3]; [6],4 µg/mL
same,MIC 99%,[3]; [6],8 µg/mL
same,MIC 50%,[4],4 µg/mL
same,MIC 99%,[4],8 µg/mL
same,MIC 50%,P. auriginosa ATCC 27853,16 µg/mL
same,MIC 99%,P. auriginosa ATCC 27853,32 µg/mL
same,MIC 50%,C. albicans,8 µg/mL
same,MIC 99%,C. albicans,16 µg/mL
same,MIC 50%,MRSA ATCC 43300; MRSA ATCC 43300,16 µg/mL
same,MIC 99%,MRSA ATCC 43300; MRSA ATCC 43300,>32 µg/mL
same,sensitivity of MRSA,"MRSA ATCC 43300; MRSA, summary of Table 4",sensitive
CC[C@H]1OC(=O)[C@H](C)[C@@H](O[C@H]2C[C@@](C)(OC)[C@@H](O)[C@H](C)O2)[C@H](C)[C@@H](O[C@@H]2O[C@H](C)C[C@H](N(C)C)[C@H]2O)[C@](C)(O)C[C@@H](C)C(=O)[C@H](C)[C@@H](O)[C@]1(C)O [Erithromycin],efficacy in cancer cell lines,[5],show efficacy

# From US11311501B2, “Mitoriboscins: mitochondrial-based therapeutics targeting cancer cells, bacteria, and pathogenic yeast” (LUNELLA BIOTECH, INC., priority 2017, dated 2022)
